Assay results as given in ChEMBL document CHEMBL1909046, “DrugMatrix in vitro pharmacology data”.

What was measured:
[1] = DRUGMATRIX: ATPase, Na+/K+ enzyme inhibition (substrate: ATP); type: tissue-based, Sus scrofa, Heart; conditions: Not Active = under 50% inhibition at 10 µM
[2] = molecular target: 5-hydroxytryptamine receptor 6 (Homo sapiens, UniProt P50406); type: cell membranes, HeLa, Membrane; further: in other assays of this panel Not Active means under 50% inhibition at 10 µM
Histamine H2 receptor = Histamine H2 receptor (Homo sapiens, UniProt P25021); type: cell membranes, CHO-K1, Membrane; conditions: cho-k1; further: in other assays of this panel Not Active means under 50% inhibition at 10 µM
Sequence of Histamine H2 receptor (P25021 whole entry): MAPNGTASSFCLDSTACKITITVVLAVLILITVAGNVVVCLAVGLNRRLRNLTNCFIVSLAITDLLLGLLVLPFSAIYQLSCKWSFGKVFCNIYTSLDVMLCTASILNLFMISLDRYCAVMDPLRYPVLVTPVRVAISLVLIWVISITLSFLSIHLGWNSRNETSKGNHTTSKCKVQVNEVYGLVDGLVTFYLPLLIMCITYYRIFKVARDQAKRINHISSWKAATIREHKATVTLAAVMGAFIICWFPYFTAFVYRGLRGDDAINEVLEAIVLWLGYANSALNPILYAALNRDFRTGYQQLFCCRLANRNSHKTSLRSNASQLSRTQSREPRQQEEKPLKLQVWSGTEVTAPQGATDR

[3] = molecular target: T1, Angiotensin-converting enzyme (Oryctolagus cuniculus, UniProt P12822); type: tissue-based, Lung;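 further: enzymatic inhibition of angiotensin-converting enzyme measured with FAPGG as the substrate; in other assays of this panel Not Active means under 50% inhibition at 10 µM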
T1 sequence (P12822 whole entry): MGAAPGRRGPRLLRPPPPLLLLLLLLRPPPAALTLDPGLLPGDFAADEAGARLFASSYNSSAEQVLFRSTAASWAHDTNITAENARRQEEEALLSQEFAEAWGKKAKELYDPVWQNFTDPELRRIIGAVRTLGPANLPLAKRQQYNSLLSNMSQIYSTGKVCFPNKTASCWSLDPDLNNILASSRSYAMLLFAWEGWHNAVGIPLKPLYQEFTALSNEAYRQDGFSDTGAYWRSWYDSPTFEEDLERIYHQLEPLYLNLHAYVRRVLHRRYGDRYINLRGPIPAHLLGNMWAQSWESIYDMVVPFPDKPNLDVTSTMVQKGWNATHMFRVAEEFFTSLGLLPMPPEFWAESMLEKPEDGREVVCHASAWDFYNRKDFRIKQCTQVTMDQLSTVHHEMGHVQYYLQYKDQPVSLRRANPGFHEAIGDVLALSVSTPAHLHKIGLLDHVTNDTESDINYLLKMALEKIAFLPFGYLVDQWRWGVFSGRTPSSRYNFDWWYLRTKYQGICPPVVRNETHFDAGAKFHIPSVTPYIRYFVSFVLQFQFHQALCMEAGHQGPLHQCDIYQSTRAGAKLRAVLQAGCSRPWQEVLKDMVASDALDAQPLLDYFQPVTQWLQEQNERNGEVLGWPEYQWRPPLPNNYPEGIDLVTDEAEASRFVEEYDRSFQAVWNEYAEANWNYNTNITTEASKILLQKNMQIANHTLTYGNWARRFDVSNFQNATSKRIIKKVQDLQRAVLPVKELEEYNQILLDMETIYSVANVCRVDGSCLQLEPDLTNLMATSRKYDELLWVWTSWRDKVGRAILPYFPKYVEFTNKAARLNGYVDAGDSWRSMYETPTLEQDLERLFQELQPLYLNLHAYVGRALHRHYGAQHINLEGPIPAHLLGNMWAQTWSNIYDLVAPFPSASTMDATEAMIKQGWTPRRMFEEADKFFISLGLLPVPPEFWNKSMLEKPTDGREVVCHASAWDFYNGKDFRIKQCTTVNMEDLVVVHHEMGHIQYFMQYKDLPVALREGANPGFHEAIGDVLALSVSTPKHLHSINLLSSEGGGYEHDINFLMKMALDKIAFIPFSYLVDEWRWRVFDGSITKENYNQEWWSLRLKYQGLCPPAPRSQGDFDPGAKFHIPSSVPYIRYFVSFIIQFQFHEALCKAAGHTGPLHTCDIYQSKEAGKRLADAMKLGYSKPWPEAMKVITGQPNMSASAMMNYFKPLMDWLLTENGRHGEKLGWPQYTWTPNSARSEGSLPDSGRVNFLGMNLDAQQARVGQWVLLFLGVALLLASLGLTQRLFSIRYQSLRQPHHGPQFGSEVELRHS

Adenosine receptor A1 = molecular target: T2, Adenosine receptor A1 (Homo sapiens, UniProt P30542); type: cell membranes, CHO, Membrane; conditions: cho;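 further: radioligand binding assay at the adenosine A1 receptor, with DPCPX serving as the labelled ligand; in other assays of this panel Not Active means under 50% inhibition at 10 µM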
T2 sequence (P30542 whole entry): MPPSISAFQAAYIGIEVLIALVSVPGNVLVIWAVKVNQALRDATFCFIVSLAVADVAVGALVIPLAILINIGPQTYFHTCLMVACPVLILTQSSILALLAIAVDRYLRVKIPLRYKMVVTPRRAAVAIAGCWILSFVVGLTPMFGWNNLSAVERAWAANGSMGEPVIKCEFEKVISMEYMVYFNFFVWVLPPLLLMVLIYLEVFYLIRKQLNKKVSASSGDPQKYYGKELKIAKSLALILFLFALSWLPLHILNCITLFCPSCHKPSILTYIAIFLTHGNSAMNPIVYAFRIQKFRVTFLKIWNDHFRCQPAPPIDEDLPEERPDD

[4] = molecular target: Voltage-gated inwardly rectifying potassium channel KCNH2 (Homo sapiens, UniProt Q12809); conditions: hek293; further: in other assays of this panel Not Active means under 50% inhibition at 10 µM
Sequence of Voltage-gated inwardly rectifying potassium channel KCNH2 (Q12809 whole entry): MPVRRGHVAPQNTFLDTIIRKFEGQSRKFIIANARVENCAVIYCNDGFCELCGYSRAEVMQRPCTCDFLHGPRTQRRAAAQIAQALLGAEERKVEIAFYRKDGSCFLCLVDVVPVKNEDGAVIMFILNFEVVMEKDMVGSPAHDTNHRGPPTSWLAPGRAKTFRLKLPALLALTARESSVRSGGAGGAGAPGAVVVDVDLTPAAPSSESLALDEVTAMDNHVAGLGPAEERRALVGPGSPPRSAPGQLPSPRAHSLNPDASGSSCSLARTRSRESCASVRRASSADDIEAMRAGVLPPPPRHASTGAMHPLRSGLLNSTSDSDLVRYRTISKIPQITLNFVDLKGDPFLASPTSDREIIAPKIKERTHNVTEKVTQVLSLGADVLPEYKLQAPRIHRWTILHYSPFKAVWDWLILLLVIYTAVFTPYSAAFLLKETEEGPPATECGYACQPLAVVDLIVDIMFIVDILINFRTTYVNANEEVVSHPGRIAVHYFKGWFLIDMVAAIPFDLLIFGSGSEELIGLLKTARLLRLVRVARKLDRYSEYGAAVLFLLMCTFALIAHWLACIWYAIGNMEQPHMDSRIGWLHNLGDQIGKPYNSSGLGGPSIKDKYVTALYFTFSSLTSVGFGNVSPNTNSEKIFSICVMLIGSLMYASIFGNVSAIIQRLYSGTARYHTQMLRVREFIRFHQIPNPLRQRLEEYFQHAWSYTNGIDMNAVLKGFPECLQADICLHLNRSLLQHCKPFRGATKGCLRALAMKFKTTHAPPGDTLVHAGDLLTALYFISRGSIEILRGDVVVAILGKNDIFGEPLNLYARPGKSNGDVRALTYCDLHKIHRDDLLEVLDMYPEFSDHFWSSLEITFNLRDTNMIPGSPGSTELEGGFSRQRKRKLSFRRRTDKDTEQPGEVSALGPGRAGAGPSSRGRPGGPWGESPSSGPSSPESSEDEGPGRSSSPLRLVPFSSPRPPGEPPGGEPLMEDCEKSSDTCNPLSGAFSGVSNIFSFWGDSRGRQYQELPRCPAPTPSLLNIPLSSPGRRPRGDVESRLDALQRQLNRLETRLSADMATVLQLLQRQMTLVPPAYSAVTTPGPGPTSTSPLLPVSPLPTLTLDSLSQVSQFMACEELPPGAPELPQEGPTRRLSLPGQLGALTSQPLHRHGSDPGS

Sequence of 5-hydroxytryptamine receptor 6 (P50406 whole entry): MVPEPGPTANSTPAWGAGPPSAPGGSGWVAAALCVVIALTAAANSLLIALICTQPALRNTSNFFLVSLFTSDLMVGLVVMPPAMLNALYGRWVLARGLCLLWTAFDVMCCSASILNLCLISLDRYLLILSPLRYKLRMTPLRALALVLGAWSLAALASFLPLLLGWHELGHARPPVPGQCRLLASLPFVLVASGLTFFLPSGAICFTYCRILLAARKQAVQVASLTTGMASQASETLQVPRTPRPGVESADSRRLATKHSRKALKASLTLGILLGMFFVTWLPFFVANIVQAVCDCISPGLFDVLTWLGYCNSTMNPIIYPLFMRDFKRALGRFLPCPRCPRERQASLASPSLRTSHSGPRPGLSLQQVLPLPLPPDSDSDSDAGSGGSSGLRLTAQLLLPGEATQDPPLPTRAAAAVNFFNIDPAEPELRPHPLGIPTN

Compound | IC50 [1] | Ki [1] | IC50 ([2]; hela) | IC50 (Histamine H2 receptor) | IC50 [3] | IC50 (Adenosine receptor A1) | IC50 [4] | Ki [4] | IC50 ([2]; read-out: IC50) [nM] | Ki ([2]; read-out: Ki) [nM]
CC(=O)OCC(=O)[C@@]1(O)CC[C@H]2[C@@H]3CCC4=CC(=O)CC[C@]4(C)[C@@]3(F)[C@@H](O)C[C@@]21C [FLUDROCORTISONE ACETATE] | Not Active | Not Active | Not Active | Not Active | Not Active | Not Active | Not Active | Not Active |  | 
CN(C)C(=O)Oc1cccc([N+](C)(C)C)c1.[Br-] [NEOSTIGMINE BROMIDE] | Not Active | Not Active | Not Active | Not Active | Not Active | Not Active | Not Active | Not Active |  | 
C[C@]12CC[C@@H]3c4ccc(O)cc4CC[C@H]3[C@@H]1C[C@@H](O)[C@@H]2O [ESTRIOL] | Not Active | Not Active | Not Active | Not Active | Not Active | Not Active | Not Active | Not Active |  | 
CCN(CC)CCNC(=O)c1ccc(N)cc1 [PROCAINAMIDE] | Not Active | Not Active | Not Active | Not Active | Not Active | Not Active | Not Active | Not Active |  | 
O=C(O)P(=O)(O)O [FOSCARNET] | Not Active | Not Active | Not Active | Not Active | Not Active | Not Active | Not Active | Not Active |  | 
C[C@H]1[C@H](NC(=O)/C(=N\OC(C)(C)C(=O)O)c2csc(N)n2)C(=O)N1S(=O)(=O)O [AZTREONAM] | Not Active | Not Active | Not Active | Not Active | Not Active | Not Active | Not Active | Not Active |  | 
CN1C[C@@H]2C[C@H]1CN2c1cc2c(cc1F)c(=O)c(C(=O)O)cn2C1CC1 [DANOFLOXACIN] | Not Active | Not Active | Not Active | Not Active | Not Active | Not Active | Not Active | Not Active |  | 
CC(=O)OCC(=O)[C@@]12OC(C)(C)O[C@@H]1C[C@H]1[C@@H]3C[C@H](F)C4=CC(=O)C=C[C@]4(C)[C@@]3(F)[C@@H](O)C[C@@]12C [FLUOCINONIDE] | Not Active | Not Active | Not Active | Not Active | Not Active | Not Active | Not Active | Not Active |  | 
CN1CCCC(CN2c3ccccc3Sc3ccccc32)C1 (stereo unspecified) [MEPAZINE] | Not Active | Not Active |  | Not Active | Not Active | Not Active | Not Active | Not Active | 1840 | 853
NCCCNCCSP(=O)(O)O [AMIFOSTINE] | Not Active | Not Active | Not Active | Not Active | Not Active | Not Active | Not Active | Not Active |  | 
CC[C@]1(O)C[C@@H]2CN(CCc3c([nH]c4ccccc34)[C@@](C(=O)OC)(c3cc4c(cc3OC)N(C)[C@H]3[C@@](O)(C(N)=O)[C@H](O)[C@]5(CC)C=CCN6CC[C@]43[C@@H]65)C2)C1 [VINDESINE] | Not Active | Not Active | Not Active | Not Active | Not Active | Not Active | Not Active | Not Active |  | 
CN1CCN(c2c(F)cc3c(=O)c(C(=O)O)cn(CCF)c3c2F)CC1 [FLEROXACIN] | Not Active | Not Active | Not Active | Not Active | Not Active | Not Active | Not Active | Not Active |  | 
C[C@H]1COc2c(N3CCN(C)CC3)c(F)cc3c(=O)c(C(=O)O)cn1c23.C[C@H]1COc2c(N3CCN(C)CC3)c(F)cc3c(=O)c(C(=O)O)cn1c23.O [LEVOFLOXACIN] | Not Active | Not Active | Not Active | Not Active | Not Active | Not Active | Not Active | Not Active |  | 
NC(=O)c1cccc(N)c1 [3-AMINOBENZAMIDE] | Not Active | Not Active | Not Active | Not Active | Not Active | Not Active | Not Active | Not Active |  | 
CC(=O)OC[C@H]1O[C@@H](n2ncc(=O)[nH]c2=O)[C@H](OC(C)=O)[C@@H]1OC(C)=O [AZARIBINE] | Not Active | Not Active | Not Active | Not Active | Not Active | Not Active | Not Active | Not Active |  | 
NC(=O)N1c2ccccc2CC(=O)c2ccccc21 [OXCARBAZEPINE] | Not Active | Not Active | Not Active | Not Active | Not Active | Not Active | Not Active | Not Active |  | 
CCC1=C(C)CN(C(=O)NCCc2ccc(S(=O)(=O)NC(=O)N[C@H]3CC[C@H](C)CC3)cc2)C1=O [GLIMEPIRIDE] | Not Active | Not Active | Not Active | Not Active | Not Active | Not Active | Not Active | Not Active |  | 
O=C(O)CCCc1cccs1 | Not Active | Not Active | Not Active | Not Active | Not Active | Not Active | Not Active | Not Active |  | 
Cc1ccc(C)c(OCCCC(C)(C)C(=O)O)c1 [GEMFIBROZIL] | Not Active | Not Active | Not Active | Not Active | Not Active | Not Active | Not Active | Not Active |  | 
NNCCc1ccccc1 [PHENELZINE] | Not Active | Not Active | Not Active | Not Active | Not Active | Not Active | Not Active | Not Active |  | 
O=C(O)CCNC(=O)c1ccc(/N=N/c2ccc(O)c(C(=O)O)c2)cc1 [BALSALAZIDE] | Not Active | Not Active | Not Active | Not Active | Not Active | Not Active | Not Active | Not Active |  | 
C[S+](C)[O-] [DIMETHYL SULFOXIDE] | Not Active | Not Active | Not Active | Not Active | Not Active | Not Active | Not Active | Not Active |  | 
O=C(c1ccccc1F)N1CCC(Cc2ccccc2)CC1 | Not Active | Not Active | Not Active | Not Active | Not Active | Not Active | Not Active | Not Active |  | 
COc1cc(OC)c(C(=O)CCCN2CCCC2)c(OC)c1 [BUFLOMEDIL] | Not Active | Not Active | Not Active | Not Active | Not Active | Not Active | Not Active | Not Active |  | 
COC(=O)Nc1nc2cc(C(=O)c3ccc(F)cc3)ccc2[nH]1 [FLUBENDAZOLE] | Not Active | Not Active | Not Active | Not Active | Not Active | Not Active | Not Active | Not Active |  | 
